Test [1] can be described thus: Inhibitory activity against sweet almond Beta-glucosidase.
Assay in test [2]: as above
The source holds these as a separate data set.

5 compounds from BindingDB's records for doi:10.1016/S0960-894X(01)81044-1 (1991) can be followed below.

Take `OC[C@H]1OC[C@@H](O)[C@H]1O` [(2R,3R,4R)-2-Hydroxymethyl-tetrahydro-furan-3,4-diol]: in test [1], the Ki – broadly, a dissociation constant, usually derived from enzyme kinetics or from competition with a known ligand – came to 14.8 mM.

`OC[C@H]1OC[C@@H](O)[C@@H]1O` [(2R,3S,4R)-2-Hydroxymethyl-tetrahydro-furan-3,4-diol] displayed a Ki in test [1] of 36.2 mM.

With `OC[C@H]1OC[C@H](O)[C@@H](O)[C@@H]1O` [(2R,3S,4R,5S)-2-(hydroxymethyl)oxane-3,4,5-triol], the Ki in test [1] was determined as 60 mM.

`O[C@H]1[C@H](O)COC[C@@H]1O` [(3S,4R,5R)-Tetrahydro-pyran-3,4,5-triol] registered a Ki in test [1] of 39 mM.

With `NCCc1cn(C(=O)c2ccccc2)cn1` [[4-(2-Amino-ethyl)-imidazol-1-yl]-phenyl-methanone], the Ki in test [2] amounted to 0.00011 mM.
